Assay: PK analysis of AK3287 in plasma and skin by LC/MS after application on wound
Assay type: in vivo, Duroc pig
Procedure: According to Table 4, 1 ml of the AK3287 emulsion or vehicle was administered to each of the wounds and smeared evenly on the wounds. The above administration treatment was carried out once daily. The time points for administration were set to start on Day 3 and end on Day 21.
3. Sample and analysis of PK test:
On Day 4, Day 9, Day 15, and Day 21 (i.e., on Day 1, Day 6, Day 12, and Day 18 after the first administration), a piece of circular skin was obtained by surgical incision with a skin biopsy punch (10 mm), after the animal was anesthetized and before the drug was smeared. Blood was sampled from the jugular vein and prepared as plasma. A total of 48 skin samples and 48 plasma samples were collected and subjected to PK analysis by LC/MS method.

exposure in the skin, by dose group (skin, 0.5%, 2% and 8% emulsion groups, FIG. 3): higher in the high-dose group
Structure (SMILES): Cn1cc(-c2cn(-c3ccc(OC(F)(F)F)cc3)c(=O)c3ncn(C)c23)cn1 [AK3287]
amount of AK3287 entering the blood (plasma PK) (plasma, application of emulsion on wound, FIG. 2): a small amount of AK3287 could enter the blood
distribution of AK3287 in skin tissues (skin PK) (skin, application of emulsion on wound, FIG. 3): a majority of AK3287 remained in the skin tissues
